# Laboratory results: article PMC10900215 (JACS Au, 2024)
# Key:
# METTL3 [1] = target: T1, METTL3 (Homo sapiens, UniProt Q86U44+Q96SW2); experiment: In vitro ubiquitination assay, METTL3; assay type: biochemical; settings: 2 μM compound, 30 °C, 2 h
# T1 construct: Human full-length METTL3-METTL14 was expressed and purified as described above; Human full-length cereblon-DDB1 and 6xHis-CUL4A-6xHis-RBX1 were coexpressed; StrepII (N); GFP (N); TEV site (N); made in house; host or cells: baculovirus/Sf9 insect cells (METTL3-METTL14, cereblon-DDB1, CUL4A-RBX1)
# T1 sequence (Q86U44 whole entry): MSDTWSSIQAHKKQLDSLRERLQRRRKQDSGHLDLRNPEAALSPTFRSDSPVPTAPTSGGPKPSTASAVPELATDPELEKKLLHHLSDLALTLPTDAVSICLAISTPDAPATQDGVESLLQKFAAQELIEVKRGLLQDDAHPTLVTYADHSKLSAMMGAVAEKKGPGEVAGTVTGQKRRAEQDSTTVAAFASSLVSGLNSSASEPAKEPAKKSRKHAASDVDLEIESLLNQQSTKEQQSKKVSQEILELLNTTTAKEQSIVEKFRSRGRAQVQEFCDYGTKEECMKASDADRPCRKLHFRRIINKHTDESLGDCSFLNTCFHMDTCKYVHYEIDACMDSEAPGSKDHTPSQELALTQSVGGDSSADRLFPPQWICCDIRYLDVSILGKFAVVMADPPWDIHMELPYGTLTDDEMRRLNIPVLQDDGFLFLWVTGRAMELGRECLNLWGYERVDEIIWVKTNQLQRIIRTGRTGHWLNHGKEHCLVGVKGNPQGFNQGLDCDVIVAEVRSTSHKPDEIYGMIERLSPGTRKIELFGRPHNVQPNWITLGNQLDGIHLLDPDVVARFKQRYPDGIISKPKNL
# T1 sequence (Q9HCE5 whole entry partner): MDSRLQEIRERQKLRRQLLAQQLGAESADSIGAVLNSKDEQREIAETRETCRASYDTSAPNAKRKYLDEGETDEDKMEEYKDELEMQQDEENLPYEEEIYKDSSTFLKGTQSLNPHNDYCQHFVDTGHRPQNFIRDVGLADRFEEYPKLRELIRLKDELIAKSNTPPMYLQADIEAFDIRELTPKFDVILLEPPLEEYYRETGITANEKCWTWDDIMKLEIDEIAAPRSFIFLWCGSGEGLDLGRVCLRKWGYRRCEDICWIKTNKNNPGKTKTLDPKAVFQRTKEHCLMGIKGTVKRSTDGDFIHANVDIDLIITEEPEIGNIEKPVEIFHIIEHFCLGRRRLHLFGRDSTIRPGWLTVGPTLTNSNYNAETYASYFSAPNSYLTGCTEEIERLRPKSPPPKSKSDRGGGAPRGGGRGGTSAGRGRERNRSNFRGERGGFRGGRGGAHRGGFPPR
# T1 sequence (Q96SW2 whole entry): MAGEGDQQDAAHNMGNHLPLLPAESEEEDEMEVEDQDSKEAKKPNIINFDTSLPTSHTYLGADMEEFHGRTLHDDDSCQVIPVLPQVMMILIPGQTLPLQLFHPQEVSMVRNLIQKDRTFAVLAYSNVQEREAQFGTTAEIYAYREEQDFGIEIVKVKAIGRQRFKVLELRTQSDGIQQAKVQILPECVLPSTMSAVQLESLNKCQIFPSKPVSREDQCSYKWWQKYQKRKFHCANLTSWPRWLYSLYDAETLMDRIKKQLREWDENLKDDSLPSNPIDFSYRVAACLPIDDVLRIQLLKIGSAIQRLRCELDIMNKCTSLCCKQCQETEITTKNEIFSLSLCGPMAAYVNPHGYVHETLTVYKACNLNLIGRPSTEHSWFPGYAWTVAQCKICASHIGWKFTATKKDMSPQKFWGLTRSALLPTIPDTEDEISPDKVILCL
# T1 sequence (Q16531 whole entry partner): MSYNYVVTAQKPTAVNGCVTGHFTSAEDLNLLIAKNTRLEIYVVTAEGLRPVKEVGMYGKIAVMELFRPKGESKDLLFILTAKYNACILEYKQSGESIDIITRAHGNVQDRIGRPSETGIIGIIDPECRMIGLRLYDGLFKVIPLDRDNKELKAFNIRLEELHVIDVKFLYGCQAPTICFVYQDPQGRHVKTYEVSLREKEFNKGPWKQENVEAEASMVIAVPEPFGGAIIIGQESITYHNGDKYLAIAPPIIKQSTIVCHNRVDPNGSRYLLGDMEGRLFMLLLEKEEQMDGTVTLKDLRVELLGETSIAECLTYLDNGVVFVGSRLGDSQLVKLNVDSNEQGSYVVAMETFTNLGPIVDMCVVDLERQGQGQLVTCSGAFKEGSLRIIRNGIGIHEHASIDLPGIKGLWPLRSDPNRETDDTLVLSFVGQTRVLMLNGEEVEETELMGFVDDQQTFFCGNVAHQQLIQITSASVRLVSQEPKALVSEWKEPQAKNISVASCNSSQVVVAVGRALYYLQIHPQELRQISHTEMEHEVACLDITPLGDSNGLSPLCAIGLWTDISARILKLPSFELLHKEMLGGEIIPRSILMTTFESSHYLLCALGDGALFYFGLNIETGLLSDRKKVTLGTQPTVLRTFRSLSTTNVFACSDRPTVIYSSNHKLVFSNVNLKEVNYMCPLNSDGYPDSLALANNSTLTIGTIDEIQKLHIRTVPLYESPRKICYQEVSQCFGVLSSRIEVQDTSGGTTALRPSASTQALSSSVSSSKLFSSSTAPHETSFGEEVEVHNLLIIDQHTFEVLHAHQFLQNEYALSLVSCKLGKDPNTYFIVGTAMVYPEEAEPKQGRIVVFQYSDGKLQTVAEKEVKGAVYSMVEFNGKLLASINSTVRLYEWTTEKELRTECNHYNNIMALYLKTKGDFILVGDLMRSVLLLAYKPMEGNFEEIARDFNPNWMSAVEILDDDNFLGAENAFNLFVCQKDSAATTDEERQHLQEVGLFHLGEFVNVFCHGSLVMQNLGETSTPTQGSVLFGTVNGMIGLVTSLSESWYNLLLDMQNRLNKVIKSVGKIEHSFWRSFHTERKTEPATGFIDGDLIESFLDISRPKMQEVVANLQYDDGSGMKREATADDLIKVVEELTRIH
# T1 sequence (Q13619 whole entry partner): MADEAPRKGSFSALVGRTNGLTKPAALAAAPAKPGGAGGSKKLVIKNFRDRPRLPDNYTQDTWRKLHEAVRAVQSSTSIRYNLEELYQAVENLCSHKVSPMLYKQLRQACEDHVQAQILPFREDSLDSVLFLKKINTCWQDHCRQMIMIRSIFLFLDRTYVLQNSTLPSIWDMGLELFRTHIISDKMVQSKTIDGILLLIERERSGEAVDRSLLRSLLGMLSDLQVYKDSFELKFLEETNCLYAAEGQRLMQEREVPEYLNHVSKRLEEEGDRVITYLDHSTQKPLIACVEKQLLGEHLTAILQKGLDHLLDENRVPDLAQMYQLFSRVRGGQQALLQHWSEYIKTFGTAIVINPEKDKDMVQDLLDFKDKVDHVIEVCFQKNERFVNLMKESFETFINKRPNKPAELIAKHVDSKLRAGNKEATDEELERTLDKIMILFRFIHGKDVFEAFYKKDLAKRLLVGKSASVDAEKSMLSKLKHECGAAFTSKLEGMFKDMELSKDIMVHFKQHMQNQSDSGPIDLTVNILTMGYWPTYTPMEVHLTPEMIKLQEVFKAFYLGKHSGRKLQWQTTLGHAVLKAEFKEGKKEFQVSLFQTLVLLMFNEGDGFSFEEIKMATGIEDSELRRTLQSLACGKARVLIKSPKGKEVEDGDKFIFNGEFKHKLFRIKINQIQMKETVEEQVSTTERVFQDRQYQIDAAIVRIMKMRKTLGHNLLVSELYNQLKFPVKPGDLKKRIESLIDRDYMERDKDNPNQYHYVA
# T1 sequence (P62877 whole entry partner): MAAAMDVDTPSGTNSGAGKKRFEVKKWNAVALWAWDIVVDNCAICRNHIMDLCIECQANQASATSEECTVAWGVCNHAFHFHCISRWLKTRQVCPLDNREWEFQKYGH
# Procedure: (§1) For the cell-free in vitro ubiquitination of METTL3-METTL14 purified E1, E2, ubiquitin, CUL4A-RBX1, Cereblon-DDB1, and METTL3-METTL14 were used. Human full-length METTL3-METTL14 was expressed and purified as described above. […] Purified recombinant human UBE1 E1 (E-305–025) was purchased from R&D Systems, UbcH5a E2 (23–029) from Merck and ubiquitin (SBB-UP0013) from South Bay Bio. For the ubiquitination reaction, components were mixed to final concentrations of 0.06 μM UBE1, 1.96 μM UbcH5a, 39 μM ubiquitin, 0.33 μM CUL4A-RBX1, 0.33 μM Cereblon-DDB1, 0.5 μM METTL3-METTL14, and different concentrations of compound 14 or me-14 (0, 2, 8, or 32 μM) in reaction buffer (50 mM Tris-HCl pH 7.6, 5 mM MgCl2, 0.2 mM CaCl2, 1 mM DTT, 100 mM NaCl, 0.01% BSA, 0.01% Triton X-100). The final reaction volume was 15 μL. After the addition of 2 mM ATP (or the equal volume of water for the control without ATP), the reaction mixture was incubated for 2 h at 30 °C. […] The signals were quantified by using the Image Studio Lite software. To determine the percentage of ubiquitinated METTL3, the fraction of unmodified METTL3 was calculated by dividing the signal of the band assigned to unmodified METTL3 by the signal of the area containing both the unmodified and (poly)ubiquitinated METTL3 and normalizing to the control without ATP. […]
# METTL14 = experiment: In vitro ubiquitination assay, METTL14; assay type: biochemical, human; settings: 2, 8, 32 μM compound, 30 °C, 2 h
# Procedure: as §1
# Cereblon (CRBN) = target: T2, Cereblon (CRBN) (Homo sapiens, UniProt Q96SW2); experiment: Cellular thermal shift assay (CETSA) in MOLM-13, Cereblon; assay type: cell-based; settings: MOLM-13, 54 °C
# T2 construct: endogenous in cells; host or cells: MOLM-13
# T2 sequence (Q96SW2 whole entry): as the sequence (Q96SW2 whole entry) above
# METTL3 [2] = target: T3, METTL3 (Homo sapiens, UniProt Q86U44); experiment: Cellular thermal shift assay (CETSA) in MOLM-13, METTL3; assay type: cell-based; settings: MOLM-13, 54 °C
# T3 construct: METTL3–14 degradation up to 70% of the endogenous level; endogenous in cells; host or cells: MOLM-13, PC3, DU145
# T3 sequence (Q86U44 2-580 limits assumed): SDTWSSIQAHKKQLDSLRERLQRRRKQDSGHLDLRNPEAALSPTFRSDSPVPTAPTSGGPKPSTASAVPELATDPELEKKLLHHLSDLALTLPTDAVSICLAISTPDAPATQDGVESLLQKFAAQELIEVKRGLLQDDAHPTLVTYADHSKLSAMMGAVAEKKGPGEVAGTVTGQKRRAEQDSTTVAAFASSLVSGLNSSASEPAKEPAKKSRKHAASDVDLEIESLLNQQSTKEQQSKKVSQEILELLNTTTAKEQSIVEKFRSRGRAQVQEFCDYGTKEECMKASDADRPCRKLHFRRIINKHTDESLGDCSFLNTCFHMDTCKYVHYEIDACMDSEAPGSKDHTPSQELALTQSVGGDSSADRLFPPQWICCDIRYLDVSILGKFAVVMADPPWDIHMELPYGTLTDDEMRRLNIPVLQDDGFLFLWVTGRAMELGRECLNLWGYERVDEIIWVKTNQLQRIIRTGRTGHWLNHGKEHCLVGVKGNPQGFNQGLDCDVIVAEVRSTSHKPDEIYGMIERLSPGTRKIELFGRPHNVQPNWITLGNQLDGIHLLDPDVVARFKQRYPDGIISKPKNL
# T3 sequence (Q9HCE5 whole entry partner): as the sequence (Q9HCE5 whole entry partner) above
# Procedure: One million of MOLM-13 cells were suspended in 100 μL of PBS (10010023, Thermo Fisher Scientific) containing 2× protease inhibitor cocktail (11697498001, Roche), for each condition tested. Cells were incubated with compounds or DMSO control (1% (v/v)) for 1 h at 37 °C. They were then heat treated at 54 °C in a thermoblock for 3 min, followed by cooling to room temperature (3 min). Next, samples were lysed by threefreeze–thaw cycles in liquid nitrogen and centrifuge at 16000 g for 30 min, 4 °C. Equal volumes of control and tested samples (12 μL) were analyzed by Western blot. The changes in the amount of METTL3 protein (after normalization for β-actin and/or GAPDH) were monitored by performing densitometry in Image Studio Lite software and analyzed in GraphPad Prism 9.
compound,measurement,setting,value
CC1(C)CCN(Cc2cc(F)c(N3CC(=O)NC4(CCN(c5cc(NCc6cccc(CNC(=O)CCCNc7cccc8c7C(=O)N(C7CCC(=O)NC7=O)C8=O)c6)ncn5)CC4)C3)cc2F)CC1 (stereo not shown) [Compound 14],ubiquitination level of METTL3,METTL3 [1],~40%
same,ubiquitination of METTL14,METTL14,not as pronounced
same,stabilization of Cereblon (CETSA),Cereblon (CRBN),visible
same,stabilization of METTL3 (CETSA),METTL3 [2],stabilize METTL3 in a concentration-dependent manner
